Measurements: patent publication US7960562B2, “Propane-1,3-dione derivative or salt thereof” (Astellas Pharma Inc., priority 2005, dated 2011)

Each compound was assayed against T1, human GnRH receptor (Homo sapiens, UniProt P30968) (assay: Test for GnRH receptor antagonistic effect (inhibition of 125I-D-Trp6-LHRH binding)). Details: Table 1; read-out: IC50 (concentration that inhibits 50% of the binding of 125I-D-Trp6-LHRH to a human GnRH receptor).
T1 sequence (P30968 1-328): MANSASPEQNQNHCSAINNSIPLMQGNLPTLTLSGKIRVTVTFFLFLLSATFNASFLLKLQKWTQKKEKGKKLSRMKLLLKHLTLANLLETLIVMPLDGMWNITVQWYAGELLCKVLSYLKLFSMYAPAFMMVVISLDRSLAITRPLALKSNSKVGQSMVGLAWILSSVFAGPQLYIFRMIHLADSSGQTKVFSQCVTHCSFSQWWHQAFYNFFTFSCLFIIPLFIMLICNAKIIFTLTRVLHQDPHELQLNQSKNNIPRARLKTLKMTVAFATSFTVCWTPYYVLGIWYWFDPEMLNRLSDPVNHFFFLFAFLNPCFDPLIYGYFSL
Description: The GnRH receptor antagonistic effects of the compounds of the present invention were evaluated by calculating their concentration that inhibit 50% of the binding of ^125I-D-Trp^6-LHRH to a human GnRH receptor (IC50), according to the description in Patent Reference 1, page 56 “1. Test for GNRH Receptor Antagonistic Effect”.
Accordingly, for confirming the usefulness of “group of —SO2—R^3”, the activities of the compounds of the present invention was compared with those of the comparative compounds having —CO—R^3 group.

IC50	SMILES
0.094 nM	CC(C)(O)C(=N)NS(=O)(=O)c1cccc(C(=O)C(C(=O)c2cccc(F)c2)=C2Nc3ccccc3N2)c1 [Example 211]
0.058 nM	CC(=N)NS(=O)(=O)c1cccc(C(=O)C(C(=O)c2cccc(F)c2)=C2Nc3ccccc3N2)c1 [Example 245]
0.24 nM	CC(C)(O)C(=N)NS(=O)(=O)c1cc(C(=O)C(C(=O)c2cccc(F)c2)=C2Nc3ccccc3N2)ccc1F [Example 662]
0.18 nM	C[C@@H](O)C(=N)NS(=O)(=O)c1cc(C(=O)C(C(=O)c2cccc(F)c2)=C2Nc3ccccc3N2)ccc1F [Example 696, (2R)-N-({5-[2-(1,3-dihydro-2H-benzimidazol-2-ylidene)-3-(3-fluorophenyl)-3-oxopropanoyl]-2-fluorophenyl}sulfonyl)-2-hydroxypropanimidamide]

Same assay, conditions: Table 2; read-out: IC50 (GnRH receptor binding), SO2-R3 compounds versus comparative CO-R3 compounds

IC50	SMILES
16 nM	CC(=O)NC(N)=NC(=O)c1cccc(C(=O)C(C(=O)c2cc(F)cc(F)c2)=C2Nc3ccccc3N2)c1 [Comparative Example 3, reference compound]
0.053 nM	CC(=N)NS(=O)(=O)c1cccc(C(=O)C(C(=O)c2cc(F)cc(F)c2)=C2Nc3ccccc3N2)c1 [Example 73]
0.56 nM	CC(=O)NC(N)=NS(=O)(=O)c1cccc(C(=O)C(C(=O)c2cc(F)cc(F)c2)=C2Nc3ccccc3N2)c1 [Example 74]
0.066 nM	O=C(C(C(=O)c1cccc(S(=O)(=O)NCCO)c1)=C1Nc2ccccc2N1)c1cc(F)cc(F)c1 [Example 77]
0.022 nM	NC(N)=NS(=O)(=O)c1cccc(C(=O)C(C(=O)c2cc(F)cc(F)c2)=C2Nc3ccccc3N2)c1 [Example 89]
7.1 nM	CC(=N)NC(=O)c1cccc(C(=O)C(C(=O)c2cc(F)cc(F)c2)=C2Nc3ccccc3N2)c1 [compound 1, reference compound]
9.6 nM	O=C(NCCO)c1cccc(C(=O)C(C(=O)c2cc(F)cc(F)c2)=C2Nc3ccccc3N2)c1 [compound 4, reference compound]
